# Reference: patent US20090291153A1, “Health food, Method for producing the same and dried Product and Extract” (priority 2004, published 2009)
# Columns and labels:
# [1] = test system: streptozotocin-induced diabetic rats; test: Blood glucose levels of streptozotocin-administered rats; type: in vivo, Wistar rats; conditions: 5 μg/g BW subcutaneously for seven consecutive days from day 1 after streptozotocin 85 μg/g BW i.p.; P<0.05 / P<0.01 vs Control
# Description: Ten 1-day-old Wistar rats (purchased from Japan SLC, Shizuoka, Japan) were intraperitoneally injected with streptozotocin (purchased from Wako Pure Chemical Industries, Ltd., dissolved in […] citrate buffer (pH 4.5)) at 85 μg/g BW per rat. Streptozotocin decreases insulin production by destroying pancreatic cells, thereby inducing diabetes. The day of streptozotocin injection was defined as day 0. Starting from the next day (day 1), five rats were injected subcutaneously with a solution (ethanol) of conophylline at 5 μg/g BW for seven consecutive days and their blood glucose levels were measured at a predetermined time daily. Five rats in the control group received the same volume of solvent (control).
# K-ras-NRK cells = test: Morphological change of K-ras-NRK cells; type: cell-based; conditions: final concentration 0.1 μg/ml, three days, FIG. 4
# Description: Conophylline is known to induce a morphological change of K-ras-NRK cells. Thus, it was examined whether an extract of Ervatamia microphylla leaves induces morphological changes of K-ras-NRK cells. It is also known that leaves of the Malaysian Tabernaemontana contains conophylline (Org. Biomol. Chem. 1: 1292-1297, 2003). Thus, it was examined that whether an extract of leaves of crape jasmine, the Japanese Tabernaemontana divaricata, also induces morphological changes in K-ras-NRK cells. An extract of each plant was prepared, in the same manner as described in Example 1, by extracting the active ingredient contained in the leaves with methanol, then removing solids by suction filtration, followed by concentring and drying, and dissolving the resulting powder into methanol.
# 500 μl of a suspension ([…] per culture medium (DMEM containing 5% FBS, 0.6 g/l glutamine, 0.2 g/l kanamycin, 2.25 g/l NaHCO3)) of K-Ras-NRK cells was added to each well of 24-well plastic plates at 2.0×10^4 cells/well, and the plates were incubated at 37° C. under 5% CO2. The next day, conophylline (final concentration: 0.1 μg/ml), an extract of Ervatamia microphylla leaves (final concentration: 10 μg/ml), and an extract of crape jasmine leaves (final concentration: 10 μg/ml) were added to the culture medium, which was incubated at 37° C. under the condition of 5% CO2 for three days. […]
# [2] = test system: pancreatic acinar carcinoma AR42J-B13 cells; conditions: cited from earlier work
# [3] = test system: AR42J cells (ATCC CRL 1492); test: Morphological change of AR42J cells as marker of induced differentiation into insulin-producing cells; type: cell-based; conditions: final concentration 0.1 μg/ml, three days, FIG. 1B
# Description: Thus, it was examined whether an extract of Ervatamia microphylla can induce AR42J cells to differentiate into insulin-producing cells. It should be noted that, since characteristic morphological changes of cells are observed as differentiation into insulin-producing cells is induced, morphological changes in AR42J cell were examined as a marker of differentiation induction in this Example. AR42J cells were cultured in the media prepared by sterilizing Dulbecco modification Eagle' medium (DMEM; Nissui Pharmaceutical Co., Ltd.) by filtration after its pH was adjusted to 7.4 in the presence of 20 mM HEPES-NaOH and adding 0.6 g/l glutamine (Kanto Chemical Co., Inc: Tokyo, Japan), 0.2 g/l kanamycin (Sigma Chemical Science; Sigma: St.Louis, Mo., USA), 100 unit/ml penicillin G (Sigma), 5 mM NaHCO3, and 10% fetal bovine serum (FBS; Sigma).
# 500 μl of a suspension of AR42J cells (4.0×10^5 cells/ml per culture medium) was plated into each well of 24-well plastic plates (Corning) at 2×10^5 cells/well and cultured under the conditions of 37° C. and 5% CO2. […]
smiles,measurement,setting,value
CC[C@@]12CC(C(=O)OC)=C3Nc4cc5c(cc4[C@@]34CCN(C[C@H]3O[C@H]31)[C@@H]24)[C@@H]1[C@H](O5)[C@@H](O)[C@@]2(CC)CC(C(=O)OC)=C3Nc4c(cc(O)c(OC)c4OC)[C@@]34CCN1[C@@H]24 [conophylline],blood glucose level compared with the control,[1],apparent decrease in blood glucose levels
same,morphological change of K-ras-NRK cells,K-ras-NRK cells,undergo a morphological change
same,induction of differentiation into insulin-producing cells,"[2]; Abstracts of the 45th Annual Meeting of the Japan Diabetes Society, 2002",induces differentiation of pancreatic acinar carcinoma AR42J-B13 cells into insulin-producing cells
same,insulin release from the induced insulin-producing cells,[2]; same literature condition,do not release insulin from the cells
same,morphological change of AR42J cells (induction of differentiation into insulin-producing cells),[3],undergo a morphological change from small spherical cells to flat cells partly with processes
